Measured values: patent publication US20030104007A1, “Pseudopterosin compounds of Symbiodinium spp isolated from Pseudopterogorgia elisabethae” (priority 2001, published 2003)

Key:
[1] = test system: PMA-induced mouse ear edema; experiment: Inhibition of PMA-induced inflammation (edema) of the mouse ear; assay type: in vivo; conditions: administered topically
Protocol: A test compound is topically applied in acetone to the inside pinnae of the ears of mice in a solution containing the edema-causing irritant, phorbol 12-myristate 13-acetate (PMA). PMA alone (2 μg/ear) or in combination with the test compound is applied to left ears (5 mice per treatment group) and acetone is applied to all right ears. After 3 hour 20 minute incubation, the mice are euthanized, the ears are removed, and bores are taken and weighed. Edema is measured by subtracting the weight of the right ear (acetone control) from the weight of the left ear (treated). Results are recorded as % decreases (inhibition) or % increase (potentiation) in edema relative to the PMA control group edema. Test compounds are screened at 50 or 25 μg/ear.
This signaling mechanism may be coupled to phagosome formation. The endogenous production of eicosanoids and their role in phagosome formation may be evaluated by using […] as pharmacological probes and analyzing arachidonic acid products by conventional means.

Tetrahymena thermophila = Tetrahymena thermophila phagocytic activity (India ink food vacuole formation); assay type: cell-based; conditions: read-out: IC50, inhibition of phagocytic activity
Protocol: In Tetrahymena thermophila, PsA and elisabethadione were potent inhibitors of phagocytic activity with IC50 of 0.4 and 0.1 μM, respectively. A test compound may be assayed as follows. Log-phase Tetrahymena thermophila cultures are grown in 2% proteose peptone, 0.1% glucose at 25° C. A volume comprising 1×10^7 cells are centrifuged at 450 g for 5 minutes. The pellet is washed and resuspended in 3.15 ml of 50 mM TRIS-HCl buffer at pH 7.7. The test compound is prepared at a desired concentration in 0.4 ml volumes. For control samples, 0.4 ml of buffer is used. 0.45 ml of diluted India ink (1:25, v:v) is added to each drug preparation. At t=0, the drug/ink mixture is added to the Tetrahymena cells, and at t=10 min., […] samples of cell suspension are removed and fixed in 10% formaldehyde. At least 100 random cells from each sample are then examined in a light microscope. Phagocytic activity is assessed by calculating the ratio of cells with food vacuoles compared to the cells with no food vacuoles.

[2] = test system: leukotriene C4 production in zymosan-stimulated murine peritoneal macrophages; experiment: Leukotriene C4 production in zymosan-stimulated murine peritoneal macrophages; assay type: cell-based; conditions: read-out: IC50, inhibition of leukotriene C4 production
[3] = test system: prostaglandin E2 production in zymosan-stimulated murine peritoneal macrophages; experiment: Prostaglandin E2 production in zymosan-stimulated murine peritoneal macrophages; assay type: cell-based; conditions: read-out: IC50, inhibition of prostaglandin E2 production

Row | IC50 [2] [nM] | IC50 [3] [nM] | Structure (SMILES) | ED50, reducing PMA-induced mouse ear edema [1] [μg/ear] | IC50 (Tetrahymena thermophila) [nM]
1 |  |  | CC(C)=C[C@H]1C[C@H](C)[C@H]2CC[C@H](C)c3c(O)c(O[C@@H]4O[C@@H](C)[C@@H](O)[C@@H](O)[C@@H]4O)c(C)c1c32 [PsE, Pseudopterosin E] | 38 | 
2 |  |  | CC(C)=CCC[C@H](C)[C@H]1CC[C@H](C)C2=C1C(=O)C(C)=C(O)C2=O [elisabethadione] |  | 100
3 | 1000 | 4000 | CC(C)=C[C@H]1C[C@H](C)[C@H]2CC[C@H](C)c3c(O[C@@H]4OC[C@@H](O)[C@H](O)[C@H]4O)c(O)c(C)c1c32 [PsA, Pseudopterosin A] | 8 | 400
